PubChem BioAssay AID248 (DTP/NCI, 2004)
“And” between values parts separate entries of the source, which are not always exact repeats. Equal entries are not always repeated. Toxic doses and inconclusive results are not listed.

Test system: L1210 leukemia ip in BDF1 mice, survival T/C
Experiment: NCI In Vivo Anticancer Drug Screen. Data for tumor model L1210 Leukemia (intraperitoneal) in B6D2F1 (BDF1) mice
Conditions: endpoint: mean survival time, higher = longer survival
How it was run: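 Transplantable tumor model; survival measured in treated vs vehicle control mice. Value = treated/control.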

[1] = dose: 100.0 mg/kg/injection, schedule: Q01DX009 (ip), vehicle: Klucel (hydroxypropylcellulose) (HPC)
[2] = dose: 200.0 mg/kg/injection, schedule: Q01DX009 (ip), vehicle: Klucel (hydroxypropylcellulose) (HPC)
[3] = dose: 400.0 mg/kg/injection, schedule: Q01DX009 (ip), vehicle: Klucel (hydroxypropylcellulose) (HPC)
[4] = dose: 100.0 mg/kg/injection, schedule: Q04DX003 (ip), vehicle: other
[5] = dose: 100.0 mg/kg/injection, schedule: Q04DX003 (ip), vehicle: Klucel (hydroxypropylcellulose) (HPC)
[6] = dose: 200.0 mg/kg/injection, schedule: Q04DX003 (ip), vehicle: Klucel (hydroxypropylcellulose) (HPC)
[7] = dose: 400.0 mg/kg/injection, schedule: Q04DX003 (ip), vehicle: Klucel (hydroxypropylcellulose) (HPC)
[8] = dose: 100.0 mg/kg/injection, schedule: Q04DX003 (ip), vehicle: saline
[9] = dose: 200.0 mg/kg/injection, schedule: Q04DX003 (ip), vehicle: saline
[10] = dose: 400.0 mg/kg/injection, schedule: Q04DX003 (ip), vehicle: saline
[11] = dose: 200.0 mg/kg/injection, schedule: Q01DX009 (ip), vehicle: saline with Tween-80
[12] = dose: 400.0 mg/kg/injection, schedule: Q01DX009 (ip), vehicle: saline with Tween-80
[13] = dose: 100.0 mg/kg/injection, schedule: Q04DX003 (ip), vehicle: saline with Tween-80
[14] = dose: 200.0 mg/kg/injection, schedule: Q04DX003 (ip), vehicle: saline with Tween-80
[15] = dose: 100.0 mg/kg/injection, schedule: Q04DX002 (ip), vehicle: saline with Tween-80
[16] = dose: 200.0 mg/kg/injection, schedule: Q04DX002 (ip), vehicle: saline with Tween-80
[17] = dose: 400.0 mg/kg/injection, schedule: Q04DX002 (ip), vehicle: saline with Tween-80

CC(=O)c1ccccc1NC(=O)c1ccccc1F
T/C [1]: 98 % of control | T/C [2]: 113 % of control | T/C [3]: 95 % of control

CSc1ncnc2c1nnn2C1OC(COC(=O)c2ccccc2)C(OC(=O)c2ccccc2)C1OC(=O)c1ccccc1 (centres undefined)
T/C (dose: 50.0 mg/kg/injection, schedule: Q01DX009 (ip), vehicle: gum acacia): 93 % of control | T/C (dose: 100.0 mg/kg/injection, schedule: Q01DX001 (ip), vehicle: gum acacia): 92 % of control | T/C (dose: 100.0 mg/kg/injection, schedule: Q01DX009 (ip), vehicle: gum acacia): 89 % of control | T/C (dose: 200.0 mg/kg/injection, schedule: Q01DX001 (ip), vehicle: gum acacia): 87 % of control

Nc1ccc(SCCCCCCSc2ccc(N)cc2)cc1
T/C [4]: 94 % of control

Cc1ccc(S(=O)(=O)OCCC2=CCC3CC2C3(C)C)cc1 (centres undefined)
T/C (dose: 100.0 mg/kg/injection, schedule: Q04DX002 (ip), vehicle: saline): 103 % of control | T/C (dose: 200.0 mg/kg/injection, schedule: Q04DX002 (ip), vehicle: saline): 95 % of control | T/C (dose: 400.0 mg/kg/injection, schedule: Q04DX002 (ip), vehicle: saline): 95 % of control

Cn1cnc2c1c(=N)ncn2O
T/C (dose: 100.0 mg/kg/injection, schedule: Q01DX001 (ip), vehicle: other): 103 % of control | T/C [4]: 107 % of control | T/C (dose: 200.0 mg/kg/injection, schedule: Q01DX001 (ip), vehicle: other): 103 % of control | T/C (dose: 200.0 mg/kg/injection, schedule: Q04DX003 (ip), vehicle: other): 113 % of control | T/C (dose: 400.0 mg/kg/injection, schedule: Q01DX001 (ip), vehicle: other): 103 % of control | T/C (dose: 400.0 mg/kg/injection, schedule: Q04DX003 (ip), vehicle: other): 113 % of control

NC(CC(=O)NCC(=O)O)C(=O)O (centres undefined)
T/C (dose: 12.5 mg/kg/injection, schedule: Q04DX002 (ip), vehicle: Klucel (hydroxypropylcellulose) (HPC)): 105 % of control | T/C (dose: 25.0 mg/kg/injection, schedule: Q04DX002 (ip), vehicle: Klucel (hydroxypropylcellulose) (HPC)): 98 % of control | T/C (dose: 50.0 mg/kg/injection, schedule: Q04DX002 (ip), vehicle: Klucel (hydroxypropylcellulose) (HPC)): 94 % of control

CN(C)S(=O)(=O)c1ccc(C=C(c2ccccc2)c2ccccc2)cc1
T/C [5]: 95 % of control | T/C [6]: 94 % of control | T/C [7]: 91 % of control

CCOC(=O)C1CCC1C(=O)OCC (centres undefined)
T/C (dose: 50.0 mg/kg/injection, schedule: Q01DX009 (ip), vehicle: saline): 95 % of control | T/C (dose: 100.0 mg/kg/injection, schedule: Q01DX009 (ip), vehicle: saline): 95 % of control | T/C [8]: 96 % of control | T/C (dose: 200.0 mg/kg/injection, schedule: Q01DX009 (ip), vehicle: saline): 94 % of control | T/C [9]: 102 % of control | T/C [10]: 102 % of control

C/C(=C\C(=O)/C=C(\C)NCc1ccccc1)NCc1ccccc1
T/C [5]: 98 % of control | T/C [6]: 100 % of control | T/C [7]: 93 % of control

O=C(O)CCCN1C/C(=C\c2ccc(Cl)cc2)C(=O)C1=O
T/C (dose: 100.0 mg/kg/injection, schedule: Q01DX001 (ip), vehicle: saline): 97 % of control | T/C [8]: 98 % of control | T/C (dose: 200.0 mg/kg/injection, schedule: Q01DX001 (ip), vehicle: saline): 102 % of control | T/C [9]: 98 % of control | T/C (dose: 400.0 mg/kg/injection, schedule: Q01DX001 (ip), vehicle: saline): 107 % of control | T/C [10]: 96 % of control

O=C(OCC#CC#CCOC(=O)c1ccccc1)c1ccccc1
T/C [1]: 102 % of control | T/C [5]: 94 % of control | T/C [2]: 95 % of control | T/C [6]: 96 % of control | T/C [3]: 104 % of control | T/C [7]: 89 % of control

CCc1ccc(NC(=S)Nc2ccccc2)cc1
T/C (dose: 100.0 mg/kg/injection, schedule: Q04DX002 (ip), vehicle: other): 108 % of control | T/C (dose: 200.0 mg/kg/injection, schedule: Q04DX002 (ip), vehicle: other): 90 % of control

O=C(Nc1ccc2c(c1)C(=O)c1ccccc1C2=O)Nc1cc(C(F)(F)F)ccc1Cl
T/C [1]: 103 % of control | T/C [2]: 97 % of control | T/C [3]: 88 % of control

Cc1cccc(NNC(=S)Nc2ccccc2)c1
T/C (dose: 100.0 mg/kg/injection, schedule: Q01DX009 (ip), vehicle: saline with Tween-80): 97 % of control | T/C [11]: 97 % of control | T/C [12]: 94 % of control

c1ccc(-c2nn3c(-c4ccccc4)nnc3o2)cc1
T/C (dose: 66.0 mg/kg/injection, schedule: Q01DX009 (ip), vehicle: saline with Tween-80): 90 % of control | T/C [13]: 92 % of control | T/C (dose: 150.0 mg/kg/injection, schedule: Q01DX009 (ip), vehicle: saline with Tween-80): 95 % of control | T/C [11]: 90 % of control | T/C [14]: 93 % of control | T/C [12]: 164 % of control | T/C (dose: 400.0 mg/kg/injection, schedule: Q04DX003 (ip), vehicle: saline with Tween-80): 92 % of control

Cc1ccc(C(C)C)cc1NC(=O)/C=C/c1ccccc1
T/C (dose: 6.25 mg/kg/injection, schedule: Q01DX009 (ip), vehicle: saline with Tween-80): 97 % of control and 98 % of control | T/C (dose: 12.5 mg/kg/injection, schedule: Q01DX009 (ip), vehicle: saline with Tween-80): 97 % of control and 98 % of control | T/C (dose: 25.0 mg/kg/injection, schedule: Q04DX003 (ip), vehicle: saline with Tween-80): 88 % of control | T/C (dose: 50.0 mg/kg/injection, schedule: Q01DX001 (ip), vehicle: saline with Tween-80): 95 % of control | T/C (dose: 50.0 mg/kg/injection, schedule: Q04DX003 (ip), vehicle: saline with Tween-80): 88 % of control | T/C (dose: 100.0 mg/kg/injection, schedule: Q01DX001 (ip), vehicle: saline with Tween-80): 94 % of control | T/C [15]: 93 % of control and 96 % of control | T/C [13]: 88 % of control | T/C (dose: 200.0 mg/kg/injection, schedule: Q01DX001 (ip), vehicle: saline with Tween-80): 86 % of control and 87 % of control | T/C [16]: 88 % of control and 90 % of control | T/C [14]: 89 % of control | T/C (dose: 400.0 mg/kg/injection, schedule: Q01DX001 (ip), vehicle: saline with Tween-80): 94 % of control and 108 % of control | T/C [17]: 96 % of control and 88 % of control

Cc1cc(-c2ccc([N+](=O)[O-])cc2)cn1-c1ccccc1
T/C (dose: 50.0 mg/kg/injection, schedule: Q04DX002 (ip), vehicle: saline with Tween-80): 97 % of control | T/C [15]: 97 % of control and 89 % of control | T/C [16]: 87 % of control | T/C [17]: 96 % of control

CC(=O)CC(=O)CC(=O)c1ccccc1
T/C (dose: 50.0 mg/kg/injection, schedule: Q04DX003 (ip), vehicle: Klucel (hydroxypropylcellulose) (HPC)): 108 % of control | T/C (dose: 100.0 mg/kg/injection, schedule: Q01DX001 (ip), vehicle: Klucel (hydroxypropylcellulose) (HPC)): 97 % of control | T/C [5]: 96 % of control | T/C (dose: 200.0 mg/kg/injection, schedule: Q01DX001 (ip), vehicle: Klucel (hydroxypropylcellulose) (HPC)): 93 % of control | T/C [6]: 105 % of control | T/C (dose: 400.0 mg/kg/injection, schedule: Q01DX001 (ip), vehicle: Klucel (hydroxypropylcellulose) (HPC)): 102 % of control

CC(=O)NC(C)(C)C#N
T/C (dose: 100.0 mg/kg/injection, schedule: Q04DX002 (ip), vehicle: Klucel (hydroxypropylcellulose) (HPC)): 93 % of control | T/C (dose: 200.0 mg/kg/injection, schedule: Q04DX002 (ip), vehicle: Klucel (hydroxypropylcellulose) (HPC)): 96 % of control | T/C (dose: 400.0 mg/kg/injection, schedule: Q04DX002 (ip), vehicle: Klucel (hydroxypropylcellulose) (HPC)): 107 % of control

CN(N=O)C(=O)NN(C)C(=O)N(C)N=O
T/C (dose: 50.0 mg/kg/injection, schedule: Q01DX001 (ip), vehicle: carboxymethylcellulose (CMC)): 114 % of control | T/C (dose: 200.0 mg/kg/injection, schedule: Q01DX001 (ip), vehicle: carboxymethylcellulose (CMC)): 121 % of control | T/C (dose: 300.0 mg/kg/injection, schedule: Q01DX001 (ip), vehicle: carboxymethylcellulose (CMC)): 114 % of control | T/C (dose: 400.0 mg/kg/injection, schedule: Q01DX001 (ip), vehicle: carboxymethylcellulose (CMC)): 121 % of control
